The values below come from patent US10828315B2 (Madrigal Pharmaceuticals, Inc., priority 2013, dated 2020).

The first data set in a line: Mouse plasma stability protocol, up to 1 h (Examples 16-18). To be noted: % Remaining of parent after 1 h incubation in mouse plasma at 37° C. (10 μM).
Protocol: 150 ng/mL solution of SDC-TRAP-0002 in methanol was prepared using the internal standard spiking solution. This solution was used to precipitate all plasma samples in the study. 200 μL was pipetted into a 96 deepwell plate over dry ice. 10 μL of 1 mM stock in DMSO was added to a 1.5 mL microfuge tube, then 990 μL of plasma. Samples were mixed by vortex, then 50 μL of each sample was added in triplicate to a 96-well plate containing internal standard solution. This was designated the 0 hour time point sample. 250 μL of the remaining plasma sample was added to each of four 96 deepwell plates—one per time point. Samples were incubated at 37° C. with gentle shaking for 0.25, 0.5, and 1 hour. After each time point, one plate of each sample was removed from the shaker and placed on wet ice for approximately 2 minutes. 50 μL at plasma aliquots (in triplicate) were added to the deepwell plate containing internal standard solution. After the last time point was extracted, the 96 deepwell plate was vortexed, then centrifuged at 2-8° C. 150 μL of supernatant was collected and 25 μL at of water was added. Samples were mixed and analyzed by LC-MS/MS.
990 μL mouse plasma aliquots from a common stock were spiked with 10 μL of 1 mM stock of one of seven SDC-TRAP samples identified in the table below. Each sample was mixed and divided into 250 μL aliquots, each representing time points 0, 15 minutes, 30 minutes or 1 hour. At the prescribed time point, 3×50 μL samples were each mixed with 200 μL of methanol containing internal standard and held on dry ice until all time point samples were extracted. The samples collectively were vortex mixed for 1.5 minutes at 1500 rpm, then centrifuged at 4400 rpm for 10 minutes at 8° C.
Turning to `CCNC(=O)c1nnc(-c2cc(C(C)C)c(O)cc2O)n1-c1ccc(CN2CCC(C(=O)N3CCC(C(=O)OC4(CC)C(=O)OCc5c4cc4n(c5=O)Cc5c-4nc4ccc(O)cc4c5CC)CC3)CC2)cc1` (centres unmarked) [SDC-TRAP-0076, 4,11-diethyl-9-hydroxy-3,14-dioxo-3,4,12,14-tetrahydro-1H-pyrano[3′,4′:6,7]indolizino[1,2-b]quinolin-4-yl 1-(1-(4-(3-(2,4-dihydroxy-5-isopropylphenyl)-5-(ethylcarbamoyl)-4H-1,2,4-triazol-4-yl)benzyl)piperidine-4-carbonyl)piperidine-4-carboxylate], the “% Remaining (1 h)” value is reported as 96.0%.

`CCc1c2c(nc3ccc(O)cc13)-c1cc3c(c(=O)n1C2)COC(=O)[C@@]3(CC)OC(=O)CN1CCC(CCc2ccc(-n3c(O)nnc3-c3cc(C(C)C)c(O)cc3O)cc2)CC1` [SDC-TRAP-0106, (S)-4,11-diethyl-9-hydroxy-3,14-dioxo-3,4,12,14-tetrahydro-1H-pyrano[3′,4′:6,7]indolizino[1,2-b]quinolin-4-yl 2-(4-(4-(3-(2,4-dihydroxy-5-isopropylphenyl)-5-hydroxy-4H-1,2,4-triazol-4-yl)phenethyl)piperidin-1-yl)acetate]: the “% Remaining (1 h)” value is recorded as 114%.

Take `CCc1c2c(nc3ccc(O)cc13)-c1cc3c(c(=O)n1C2)COC(=O)[C@@]3(CC)OC(=O)CN1CCC(CCn2ccc3cc(-n4c(O)nnc4-c4cc(C(C)C)c(O)cc4O)ccc32)CC1` [SDC-TRAP-0107, (S)-4,11-diethyl-9-hydroxy-3,14-dioxo-3,4,12,14-tetrahydro-1H-pyrano[3′,4′:6,7]indolizino[1,2-b]quinolin-4-yl 2-(4-(2-(5-(3-(2,4-dihydroxy-5-isopropylphenyl)-5-hydroxy-4H-1,2,4-triazol-4-yl)-1H-indol-1-yl)ethyl)piperidin-1-yl)acetate]: the “% Remaining (1 h)” value is recorded as 111%.

Turning to `CCNC(=O)c1noc(-c2cc(C(C)C)c(O)cc2O)c1-c1ccc(CN2CCN(C(=O)Oc3ccc4nc5c(c(CC)c4c3)Cn3c-5cc4c(c3=O)COC(=O)C4(O)CC)CC2)cc1` (centres unmarked) [SDC-TRAP-0236, 4,11-diethyl-4-hydroxy-3,14-dioxo-3,4,12,14-tetrahydro-1H-pyrano[3′,4′:6,7]indolizino[1,2-b]quinolin-9-yl 4-(4-(5-(2,4-dihydroxy-5-isopropylphenyl)-3-(ethylcarbamoyl)isoxazol-4-yl)benzyl)piperazine-1-carboxylate], the “% Remaining (1 h)” value was 60.8%.

Turning to `CCc1c2c(nc3ccc(OC(=O)N4CCC(S(=O)(=O)N5CCC(CCn6ccc7cc(-n8c(O)nnc8-c8cc(C(C)C)c(O)cc8O)ccc76)CC5)CC4)cc13)-c1cc3c(c(=O)n1C2)COC(=O)[C@]3(O)CC` [SDC-TRAP-0336, (S)-4,11-diethyl-4-hydroxy-3,14-dioxo-3,4,12,14-tetrahydro-1H-pyrano[3′,4′:6,7]indolizino[1,2-b]quinolin-9-yl 4-((4-(2-(5-(3-(2,4-dihydroxy-5-isopropylphenyl)-5-hydroxy-4H-1,2,4-triazol-4-yl)-1H-indol-1-yl)ethyl)piperidin-1-yl)sulfonyl)piperidine-1-carboxylate], the “% Remaining (1 h)” value is reported as 31.7%.

Regarding `CCc1c2c(nc3ccc(OC(=O)N(C)CC(=O)N4CCC(CCn5ccc6cc(-n7c(O)nnc7-c7cc(C(C)C)c(O)cc7O)ccc65)CC4)cc13)-c1cc3c(c(=O)n1C2)COC(=O)[C@]3(O)CC` [SDC-TRAP-0337, (S)-4,11-diethyl-4-hydroxy-3,14-dioxo-3,4,12,14-tetrahydro-1H-pyrano[3′,4′: 6,7]indolizino[1,2-b]quinolin-9-yl (2-(4-(2-(5-(3-(2,4-dihydroxy-5-isopropylphenyl)-5-hydroxy-4H-1,2,4-triazol-4-yl)-1H-indol-1-yl)ethyl)piperidin-1-yl)-2-oxoethyl)(methyl)carbamate], the “% Remaining (1 h)” value worked out at 77.3%.

In the case of `CCc1c2c(nc3ccc(OC(=O)N4CCC(N5CCC(CCn6ccc7ccc(-n8c(O)nnc8-c8cc(C(C)C)c(O)cc8O)cc76)CC5)CC4)cc13)-c1cc3c(c(=O)n1C2)COC(=O)C3(O)CC` (centres unmarked) [SDC-TRAP-0353, 4,11-diethyl-4-hydroxy-3,14-dioxo-3,4,12,14-tetrahydro-1H-pyrano[3′,4′:6,7]indolizino[1,2-b]quinolin-9-yl 4-(2-(6-(3-(2,4-dihydroxy-5-isopropylphenyl)-5-hydroxy-4H-1,2,4-triazol-4-yl)-1H-indol-1-yl)ethyl)-[1,4′-bipiperidine]-1′-carboxylate], the “% Remaining (1 h)” value came to 22.5%.

As to `CCc1c2c(nc3ccc(O)cc13)-c1cc3c(c(=O)n1C2)COC(=O)C3(CC)OC(=O)N(C)Cc1ccc(OC(=O)N2CCN(Cc3ccc(-n4c(O)nnc4-c4cc(C(C)C)c(O)cc4O)cc3)CC2)cc1` (centres unmarked) [SDC-TRAP-0356, 4-(((((4,11-diethyl-9-hydroxy-3,14-dioxo-3,4,12,14-tetrahydro-1H-pyrano[3′,4′:6,7]indolizino[1,2-b]quinolin-4-yl)oxy)carbonyl)(methyl)amino)methyl)phenyl 4-(4-(3-(2,4-dihydroxy-5-isopropylphenyl)-5-hydroxy-4H-1,2,4-triazol-4-yl)benzyl)piperazine-1-carboxylate], the “% Remaining (1 h)” value amounted to 70.9%.

`CCc1c2c(nc3ccc(OC(=O)N4CCC(N(C)CCNC(=O)c5nnc(-c6cc(C(C)C)c(O)cc6O)n5-c5cccnc5)CC4)cc13)-c1cc3c(c(=O)n1C2)COC(=O)C3(O)CC` (centres unmarked) [SDC-TRAP-0358]: the “% Remaining (1 h)” value is 41.0%.

On to `CCc1c2c(nc3ccc(OC(=O)N4CCN(S(=O)(=O)N5CCC(CCn6ccc7cc(-n8c(O)nnc8-c8cc(C(C)C)c(O)cc8O)ccc76)CC5)CC4)cc13)-c1cc3c(c(=O)n1C2)COC(=O)C3(O)CC` (centres unmarked) [SDC-TRAP-0361, 4,11-diethyl-4-hydroxy-3,14-dioxo-3,4,12,14-tetrahydro-1H-pyrano[3′,4′: 6,7]indolizino[1,2-b]quinolin-9-yl 4-((4-(2-(5-(3-(2,4-dihydroxy-5-isopropylphenyl)-5-hydroxy-4H-1,2,4-triazol-4-yl)-1H-indol-1-yl)ethyl)piperidin-1-yl)sulfonyl)piperazine-1-carboxylate], for which the “% Remaining (1 h)” value stood at 25.6%.

As for `CCNC(=O)c1nnc(-c2cc(C(C)C)c(O)cc2O)n1-c1ccc(S(=O)(=O)N2CCC(C(=O)N3CCN(C(=O)Oc4ccc5nc6c(c(CC)c5c4)Cn4c-6cc5c(c4=O)COC(=O)C5(O)CC)CC3)CC2)cc1` (centres unmarked) [SDC-TRAP-0383, 4,11-diethyl-4-hydroxy-3,14-dioxo-3,4,12,14-tetrahydro-1H-pyrano[3′,4′:6,7]indolizino[1,2-b]quinolin-9-yl 4-(1-((4-(3-(2,4-dihydroxy-5-isopropylphenyl)-5-(ethylcarbamoyl)-4H-1,2,4-triazol-4-yl)phenyl)sulfonyl)piperidine-4-carbonyl)piperazine-1-carboxylate], the “% Remaining (1 h)” value was found to be 47.6%.

In the case of `CCNC(=O)c1nnc(-c2cc(C(C)C)c(O)cc2O)n1-c1ccc2c(c1)CN(S(=O)(=O)C1CCN(C(=O)Oc3ccc4nc5c(c(CC)c4c3)Cn3c-5cc4c(c3=O)COC(=O)C4(O)CC)CC1)C2` (centres unmarked) [SDC-TRAP-0391, 4,11-diethyl-4-hydroxy-3,14-dioxo-3,4,12,14-tetrahydro-1H-pyrano[3′,4:6,7]indolizino[1,2-b]quinolin-9-yl 4-((5-(3-(2,4-dihydroxy-5-isopropylphenyl)-5-(ethylcarbamoyl)-4H-1,2,4-triazol-4-yl)isoindolin-2-yl)sulfonyl)piperidine-1-carboxylate], the “% Remaining (1 h)” value was found to be 15.2%.

Consider `CCNC(=O)c1nnc(-c2cc(C(C)C)c(O)cc2O)n1-c1ccc2c(c1)CN(C(=O)Oc1ccc3nc4c(c(CC)c3c1)Cn1c-4cc3c(c1=O)COC(=O)C3(O)CC)C2` (centres unmarked) [SDC-TRAP-0392, 4,11-diethyl-4-hydroxy-3,14-dioxo-3,4,12,14-tetrahydro-1H-pyrano[3′,4′:6,7]indolizino[1,2-b]quinolin-9-yl 5-(3-(2,4-dihydroxy-5-isopropylphenyl)-5-(ethylcarbamoyl)-4H-1,2,4-triazol-4-yl)isoindoline-2-carboxylate], for which the “% Remaining (1 h)” value is on record as 44.7%.

For `CCNC(=O)c1nnc(-c2cc(C(C)C)c(O)cc2O)n1-c1ccc(S(=O)(=O)N2CCC(C(=O)N3CCN(C(=O)Oc4ccc5nc6c(c(CC)c5c4)Cn4c-6cc5c(c4=O)COC(=O)C5(O)CC)C(C)C3)CC2)cc1` (centres unmarked) [SDC-TRAP-0396, 4,11-diethyl-4-hydroxy-3,14-dioxo-3,4,12,14-tetrahydro-1H-pyrano[3′,4:6,7]indolizino[1,2-b]quinolin-9-yl 4-(1-((4-(3-(2,4-dihydroxy-5-isopropylphenyl)-5-(ethylcarbamoyl)-4H-1,2,4-triazol-4-yl)phenyl)sulfonyl)piperidine-4-carbonyl)-2-methylpiperazine-1-carboxylate], the “% Remaining (1 h)” value was 71.6%.

Regarding `CCNC(=O)c1nnc(-c2cc(C(C)C)c(O)cc2O)n1-c1ccc(C(=O)N2CCN(c3ccc(OC(=O)Nc4cccc5c4C(=O)N(C4CCC(=O)NC4=O)C5=O)c(OC)c3)CC2)cc1` (centres unmarked) [SDC-TRAP-0398, 4-(4-(4-(3-(2,4-dihydroxy-5-isopropylphenyl)-5-(ethylcarbamoyl)-4H-1,2,4-triazol-4-yl)benzoyl)piperazin-1-yl)-2-methoxyphenyl (2-(2,6-dioxopiperidin-3-yl)-1,3-dioxoisoindolin-4-yl)carbamate], the “% Remaining (1 h)” value was found to be 1.40%.

The data set is the same for the next values; noted with them: mouse plasma, 1 h, 37° C.
As for `CCNC(=O)c1nnc(-c2cc(C(C)C)c(O)cc2O)n1-c1ccc(CN2CCC(C(=O)N3CCC(C(=O)OC4(CC)C(=O)OCc5c4cc4n(c5=O)Cc5c-4nc4ccc(O)cc4c5CC)CC3)CC2)cc1` (centres unmarked) [SDC-TRAP-0076, 4,11-diethyl-9-hydroxy-3,14-dioxo-3,4,12,14-tetrahydro-1H-pyrano[3′,4′:6,7]indolizino[1,2-b]quinolin-4-yl 1-(1-(4-(3-(2,4-dihydroxy-5-isopropylphenyl)-5-(ethylcarbamoyl)-4H-1,2,4-triazol-4-yl)benzyl)piperidine-4-carbonyl)piperidine-4-carboxylate], the “% Remaining (1 h, 37° C.)” value is recorded as 96%.

Turning to `CCNC(=O)c1nnc(-c2cc(C(C)C)c(O)cc2O)n1-c1ccc(OC2CCN(C(=O)C3CCCCN3C(=O)Oc3ccc4nc5c(c(CC)c4c3)Cn3c-5cc4c(c3=O)COC(=O)[C@]4(O)CC)CC2)cc1` (stereo partly drawn) [SDC-TRAP-0216, (S)-4,11-diethyl-4-hydroxy-3,14-dioxo-3,4,12,14-tetrahydro-1H-pyrano[3′,4′:6,7]indolizino[1,2-b]quinolin-9-yl 2-(4-(4-(3-(2,4-dihydroxy-5-isopropylphenyl)-5-(ethylcarbamoyl)-4H-1,2,4-triazol-4-yl)phenoxy)piperidine-1-carbonyl)piperidine-1-carboxylate], the “% Remaining (1 h, 37° C.)” value was 67.7%.
